Experimental data from patent US10941158B2, “Pyrazole ACC inhibitors and uses thereof” (Gilead Apollo, LLC, priority 2015, dated 2021).
In brackets after ≈: the same amount, converted by molar mass. Read-outs that look alike come from different tables or passages of the source.

Columns and labels:
[1] = system: C. krusei ATCC 6258; assay: Anti-Fungal (Candida) Activity Assay, broth microtiter MIC; assay type: cell-based; conditions: Pichia kudriavzevii, read-out: MIC C. krusei ATCC 6258
Method in brief: (§1)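 Visual 48 h MIC endpoints are reported. Plates followed CLSI M27-A3 in RPMI 1640 plus MOPS.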

[2] = system: C. albicans ATCC 90028; assay: as above; assay type: cell-based; conditions: read-out: MIC C. albicans ATCC 90028
Method in brief: as §1

[3] = system: C. parapsilosis ATCC 22019; assay: as above; assay type: cell-based; conditions: Lodderomyces parapsilosis, read-out: MIC C. parapsilosis ATCC 22019
Method in brief: as §1

[4] = system: Rhizoctonia solani (Rs); assay: Growth inhibition assay of fungal pathogens; assay type: cell-based; conditions: 48 h, read-out: Concentration at 90% Inhibition Rs
Method in brief: (§2)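 Compounds in DMSO tested at final 50, 10, 2 ppm or 2, 0.4, 0.08 ppm. Spores in 17% V8 medium, or 1.5 mm mycelial plugs in ¼ PDB for R. solani, incubated with compound. OD600 and visual ratings at 48 h versus 2% DMSO control gave percent growth inhibition.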

[5] = system: Phytophthora capsici (Pc); assay: Growth inhibition assay of fungal pathogens; assay type: cell-based; conditions: for IC90: Phytophthora capsici, read-out: Concentration at 90% Inhibition Pc
Method in brief: (§3)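 Percent growth inhibition was derived from 48 h OD600 and visual scores relative to 2% DMSO, with blank background subtraction. Fungi were grown from spores in 17% V8 liquid medium, R. solani from 1.5 mm plugs in ¼ PDB, with compound at final 50/10/2 or 2/0.4/0.08 ppm.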

[6] = system: Fusarium virguliforme (Fv); assay: Growth inhibition assay of fungal pathogens; assay type: cell-based; conditions: 48 h
Method in brief: as §3

[7] = system: Collectotrichum graminicola (Cg); assay: Growth inhibition assay of fungal pathogens; assay type: cell-based; conditions: 48 h, read-out: Concentration at 90% Inhibition Cg
Method in brief: as §3

[8] = system: Septoria tritici (St); assay: Growth inhibition assay of fungal pathogens; assay type: cell-based; conditions: for IC90: Zymoseptoria tritici, read-out: Concentration at 90% Inhibition St
Method in brief: as §3

[9] = system: Botrtyis cinerea (Bc); assay: Growth inhibition assay of fungal pathogens; assay type: cell-based; conditions: 48 h, read-out: Concentration at 90% Inhibition Bc
Method in brief: as §2

[10] = system: Diplodia maydis (Dm); assay: Growth inhibition assay of fungal pathogens; assay type: cell-based; conditions: Stenocarpella maydis, 48 h, read-out: Concentration at 90% Inhibition Dm
Method in brief: as §2

[11] = system: Fusarium moniliforme (Fm); assay: Growth inhibition assay of fungal pathogens; assay type: cell-based; conditions: for IC90: Fusarium verticillioides, 48 h, read-out: Concentration at 90% Inhibition Fm
Method in brief: as §2

[12] = target: human (hACC2) ACC2 (Homo sapiens, UniProt O00763); assay: In vitro Acetyl-CoA Carboxylase (ACC) inhibition assay (ADP-Glo), hACC2; assay type: biochemical
Sequence of human (hACC2) ACC2 (O00763 whole entry): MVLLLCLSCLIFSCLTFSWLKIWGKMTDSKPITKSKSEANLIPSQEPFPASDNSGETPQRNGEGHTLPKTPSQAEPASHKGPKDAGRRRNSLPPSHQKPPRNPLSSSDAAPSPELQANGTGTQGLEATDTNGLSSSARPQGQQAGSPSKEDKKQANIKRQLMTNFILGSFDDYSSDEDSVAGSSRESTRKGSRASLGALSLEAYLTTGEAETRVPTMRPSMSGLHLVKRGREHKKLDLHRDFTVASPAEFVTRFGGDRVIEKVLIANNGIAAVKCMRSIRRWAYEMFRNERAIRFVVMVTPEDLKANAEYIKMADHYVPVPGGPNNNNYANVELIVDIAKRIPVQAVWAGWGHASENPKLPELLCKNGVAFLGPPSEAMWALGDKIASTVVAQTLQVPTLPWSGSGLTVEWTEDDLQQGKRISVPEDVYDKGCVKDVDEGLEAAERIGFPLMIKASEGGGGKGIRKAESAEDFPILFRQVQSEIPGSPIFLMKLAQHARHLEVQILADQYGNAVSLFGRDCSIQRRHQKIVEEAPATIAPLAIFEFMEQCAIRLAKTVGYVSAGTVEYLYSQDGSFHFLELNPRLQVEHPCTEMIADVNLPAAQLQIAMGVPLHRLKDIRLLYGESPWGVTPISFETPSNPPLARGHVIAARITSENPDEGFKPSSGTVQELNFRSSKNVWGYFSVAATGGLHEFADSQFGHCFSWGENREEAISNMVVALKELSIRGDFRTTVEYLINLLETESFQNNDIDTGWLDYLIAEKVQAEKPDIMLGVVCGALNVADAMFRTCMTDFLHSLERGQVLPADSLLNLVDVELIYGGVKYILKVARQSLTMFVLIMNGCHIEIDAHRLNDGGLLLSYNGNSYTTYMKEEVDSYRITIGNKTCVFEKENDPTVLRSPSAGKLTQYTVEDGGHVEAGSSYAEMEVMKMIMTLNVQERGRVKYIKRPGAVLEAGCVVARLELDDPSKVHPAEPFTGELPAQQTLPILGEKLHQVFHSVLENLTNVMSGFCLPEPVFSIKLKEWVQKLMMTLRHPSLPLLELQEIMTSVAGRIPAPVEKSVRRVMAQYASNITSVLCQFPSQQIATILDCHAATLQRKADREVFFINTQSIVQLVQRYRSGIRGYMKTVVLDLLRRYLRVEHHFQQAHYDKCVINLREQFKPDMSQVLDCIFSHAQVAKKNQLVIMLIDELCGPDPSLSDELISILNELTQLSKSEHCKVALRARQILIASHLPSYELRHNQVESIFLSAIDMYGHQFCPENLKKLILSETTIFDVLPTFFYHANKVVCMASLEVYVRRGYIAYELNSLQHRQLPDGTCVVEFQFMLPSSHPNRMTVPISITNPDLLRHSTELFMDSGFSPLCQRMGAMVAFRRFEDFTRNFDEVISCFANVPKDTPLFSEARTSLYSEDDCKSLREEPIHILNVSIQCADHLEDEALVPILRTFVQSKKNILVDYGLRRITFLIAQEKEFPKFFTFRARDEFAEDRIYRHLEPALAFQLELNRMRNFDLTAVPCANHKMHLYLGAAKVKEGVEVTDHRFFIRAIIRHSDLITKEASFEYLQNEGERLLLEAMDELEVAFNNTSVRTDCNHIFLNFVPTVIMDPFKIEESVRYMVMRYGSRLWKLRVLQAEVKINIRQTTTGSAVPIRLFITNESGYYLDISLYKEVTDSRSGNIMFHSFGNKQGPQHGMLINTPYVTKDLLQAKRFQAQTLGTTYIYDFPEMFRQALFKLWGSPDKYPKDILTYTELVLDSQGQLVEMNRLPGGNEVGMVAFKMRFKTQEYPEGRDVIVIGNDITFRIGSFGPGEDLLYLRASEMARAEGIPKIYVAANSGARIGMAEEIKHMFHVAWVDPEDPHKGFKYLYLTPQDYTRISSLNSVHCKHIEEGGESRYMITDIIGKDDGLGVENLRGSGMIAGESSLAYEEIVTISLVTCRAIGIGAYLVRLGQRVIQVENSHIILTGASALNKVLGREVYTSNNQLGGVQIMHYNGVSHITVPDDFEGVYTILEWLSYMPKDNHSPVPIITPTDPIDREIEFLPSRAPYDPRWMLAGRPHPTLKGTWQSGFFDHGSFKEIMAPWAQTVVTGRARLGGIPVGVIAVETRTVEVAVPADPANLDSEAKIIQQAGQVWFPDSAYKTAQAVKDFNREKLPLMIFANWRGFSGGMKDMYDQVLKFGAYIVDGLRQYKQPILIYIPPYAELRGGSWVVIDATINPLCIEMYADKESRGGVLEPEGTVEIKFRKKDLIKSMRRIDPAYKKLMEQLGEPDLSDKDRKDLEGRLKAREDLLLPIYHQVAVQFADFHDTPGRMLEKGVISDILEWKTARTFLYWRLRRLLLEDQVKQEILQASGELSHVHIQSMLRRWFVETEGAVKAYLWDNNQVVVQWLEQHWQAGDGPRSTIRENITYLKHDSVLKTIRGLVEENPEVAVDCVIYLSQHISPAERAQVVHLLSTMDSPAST
Protocol: The detailed procedure is as follows. […] 10 μL ADP glo reagent was added. […] 20 μL kinase detection reagent was added.
“NA” stands for “not assayed.”

[13] = target: fungal (fACC2) ACC2 (UniProt Q00955); conditions: read-out: fACC2 IC50; fungal ACC2, ADP-Glo
Sequence of fungal (fACC2) ACC2 (Q00955 whole entry): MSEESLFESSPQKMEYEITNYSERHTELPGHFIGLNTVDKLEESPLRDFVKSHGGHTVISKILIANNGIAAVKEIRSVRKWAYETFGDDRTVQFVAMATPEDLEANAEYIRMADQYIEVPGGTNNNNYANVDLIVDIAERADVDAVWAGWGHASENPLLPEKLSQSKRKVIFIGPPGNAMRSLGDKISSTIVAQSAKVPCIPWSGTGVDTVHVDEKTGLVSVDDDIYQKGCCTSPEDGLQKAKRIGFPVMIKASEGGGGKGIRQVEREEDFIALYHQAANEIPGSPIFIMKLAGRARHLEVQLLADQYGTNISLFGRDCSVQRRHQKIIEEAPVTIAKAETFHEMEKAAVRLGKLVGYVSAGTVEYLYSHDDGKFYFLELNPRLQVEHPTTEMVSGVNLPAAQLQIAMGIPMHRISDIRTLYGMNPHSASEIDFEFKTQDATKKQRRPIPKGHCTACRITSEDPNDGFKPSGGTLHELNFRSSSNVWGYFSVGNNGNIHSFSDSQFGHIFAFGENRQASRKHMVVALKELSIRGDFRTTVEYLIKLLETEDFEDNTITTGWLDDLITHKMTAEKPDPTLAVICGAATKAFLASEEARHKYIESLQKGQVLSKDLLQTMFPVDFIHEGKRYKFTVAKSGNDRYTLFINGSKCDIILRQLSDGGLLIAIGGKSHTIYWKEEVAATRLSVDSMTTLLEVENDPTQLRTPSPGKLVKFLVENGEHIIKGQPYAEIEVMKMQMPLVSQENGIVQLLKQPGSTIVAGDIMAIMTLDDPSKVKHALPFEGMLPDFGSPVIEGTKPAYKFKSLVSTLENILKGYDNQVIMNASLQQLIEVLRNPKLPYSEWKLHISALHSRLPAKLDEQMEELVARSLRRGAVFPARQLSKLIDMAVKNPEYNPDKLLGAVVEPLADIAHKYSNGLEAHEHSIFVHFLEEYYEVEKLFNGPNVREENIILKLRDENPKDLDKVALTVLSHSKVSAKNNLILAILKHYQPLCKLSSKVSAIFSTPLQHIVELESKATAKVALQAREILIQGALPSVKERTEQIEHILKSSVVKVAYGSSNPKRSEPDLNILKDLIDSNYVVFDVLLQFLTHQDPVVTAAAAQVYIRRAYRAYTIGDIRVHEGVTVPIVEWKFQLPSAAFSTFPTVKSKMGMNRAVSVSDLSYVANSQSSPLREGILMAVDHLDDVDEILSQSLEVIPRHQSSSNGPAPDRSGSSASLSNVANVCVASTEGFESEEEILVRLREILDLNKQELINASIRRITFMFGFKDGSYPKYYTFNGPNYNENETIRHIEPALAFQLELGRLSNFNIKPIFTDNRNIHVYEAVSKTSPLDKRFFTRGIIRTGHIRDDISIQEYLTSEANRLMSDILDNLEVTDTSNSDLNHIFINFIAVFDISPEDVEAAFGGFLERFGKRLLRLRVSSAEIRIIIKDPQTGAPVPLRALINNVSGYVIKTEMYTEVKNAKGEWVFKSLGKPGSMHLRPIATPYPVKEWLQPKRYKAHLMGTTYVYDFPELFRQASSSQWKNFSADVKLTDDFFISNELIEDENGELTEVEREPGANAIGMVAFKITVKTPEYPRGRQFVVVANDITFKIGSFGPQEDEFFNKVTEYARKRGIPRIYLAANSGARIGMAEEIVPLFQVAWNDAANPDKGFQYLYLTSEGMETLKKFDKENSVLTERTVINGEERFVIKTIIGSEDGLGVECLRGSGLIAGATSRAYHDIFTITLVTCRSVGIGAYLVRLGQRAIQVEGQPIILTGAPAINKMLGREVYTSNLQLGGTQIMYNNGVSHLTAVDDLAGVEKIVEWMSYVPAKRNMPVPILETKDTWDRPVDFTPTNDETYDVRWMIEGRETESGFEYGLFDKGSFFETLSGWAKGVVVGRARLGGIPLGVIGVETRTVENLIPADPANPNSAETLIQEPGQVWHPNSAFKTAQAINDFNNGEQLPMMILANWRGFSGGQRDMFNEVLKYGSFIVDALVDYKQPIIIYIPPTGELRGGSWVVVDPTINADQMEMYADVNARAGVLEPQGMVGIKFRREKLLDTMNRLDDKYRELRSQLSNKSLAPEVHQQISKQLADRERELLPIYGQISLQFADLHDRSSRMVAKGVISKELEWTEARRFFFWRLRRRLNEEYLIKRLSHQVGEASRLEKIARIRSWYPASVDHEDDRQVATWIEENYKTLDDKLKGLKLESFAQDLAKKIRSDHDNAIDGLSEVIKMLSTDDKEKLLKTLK

[14] = ATCC6258, 3 replicates, MIC recorded at 48 h
[15] = ATCC90028, 3 replicates, MIC recorded at 48 h
[16] = ATCC22019, 3 replicates, MIC recorded at 48 h
[17] = Table 4a, 48 hours, read-out: Concentration at 90% Inhibition Fv
[18] = Table 4b, 48 hours, read-out: Concentration at 90% Inhibition Fv

Compound: COc1ccccc1[C@H](Cn1c(=O)n(C(C)(C)C(=O)N2CCCC2)c(=O)c2c(C)c(-n3cccn3)sc21)OC(C)C [Compound I-18, (R)-1-(2-isopropoxy-2-(2-methoxyphenyl)ethyl)-5-methyl-3-(2-methyl-1-oxo-2-(pyrrolidin-1-yl)propan-2-yl)-6-(H-pyrazol-1-yl)thieno[2,3-d]pyrimidine-2,4(1H,3H)-dione]
- MIC [1, 14]: 2.1 to 4 µg/mL (≈ 3.62 to 6.9 µM)
- MIC [2, 15]: 1.1 to 2 µg/mL (≈ 1.9 to 3.45 µM)
- MIC [3, 16]: 2.1 to 4 µg/mL (≈ 3.62 to 6.9 µM)
- IC90 ([4]; Table 4a): 0.4 µg/mL (≈ 0.69 µM)
- IC90 ([4]; Table 4b): 0.4 µg/mL (≈ 0.69 µM)
- IC90 ([5]; Table 4a, 48 hours): > 50 µg/mL
- Concentration at 90% Inhibition Pc ([5]; Table 4b, 48 hours): D (“D” provided a compound concentration of >50 ppm at 90% inhibition of fungal pathogens)
- IC90 [6, 17]: 0.4 µg/mL (≈ 0.69 µM)
- IC90 [6, 18]: 0.4 µg/mL (≈ 0.69 µM)
- IC90 ([7]; Table 4a): 2 µg/mL (≈ 3.45 µM)
- IC90 ([7]; Table 4b): 2 µg/mL (≈ 3.45 µM)
- Concentration at 90% Inhibition St ([8]; Table 4b, 48 hours): D (“D” provided a compound concentration of >50 ppm at 90% inhibition of fungal pathogens)
- IC90 ([8]; Table 4a, 48 hours): > 50 µg/mL
- IC90 ([9]; Table 4a): 2 µg/mL (≈ 3.45 µM)
- IC90 ([9]; Table 4b): 2 µg/mL (≈ 3.45 µM)
- IC90 ([10]; Table 4a): 2 µg/mL (≈ 3.45 µM)
- IC90 ([10]; Table 4b): 2 µg/mL (≈ 3.45 µM)
- IC90 ([11]; Table 4a, 48 hours): 0.08 µg/mL (≈ 0.138 µM)
- IC90 ([11]; Table 4b, 48 hours): 0.08 µg/mL (≈ 0.138 µM)
- IC50 [12]: 3 to 10 nM
- IC50 [13]: 0.6 to 3 nM

Compound: COc1ccc(F)cc1[C@H](Cn1c(=O)n(C(C)(C)C(=O)N2CCCC2)c(=O)c2c(C)c(-n3cccn3)sc21)OC(C)C [Compound I-24, (R)-1-(2-(5-fluoro-2-methoxyphenyl)-2-isopropoxyethyl)-5-methyl-3-(2-methyl-1-oxo-1-(pyrrolidin-1-yl)propan-2-yl)-6-(1H-pyrazol-1-yl)thieno[2,3-d]pyrimidine-2,4(1H,3H)-dione]
- MIC [1, 14]: 2.1 to 4 µg/mL (≈ 3.51 to 6.69 µM)
- MIC [2, 15]: > 4.1 µg/mL
- MIC [3, 16]: > 4.1 µg/mL
- IC90 ([4]; Table 4a): 0.4 µg/mL (≈ 0.669 µM)
- IC90 ([4]; Table 4b): 0.4 µg/mL (≈ 0.669 µM)
- IC90 ([5]; Table 4a, 48 hours): > 50 µg/mL
- Concentration at 90% Inhibition Pc ([5]; Table 4b, 48 hours): D (“D” provided a compound concentration of >50 ppm at 90% inhibition of fungal pathogens)
- IC90 [6, 17]: 0.4 µg/mL (≈ 0.669 µM)
- IC90 [6, 18]: 0.4 µg/mL (≈ 0.669 µM)
- IC90 ([7]; Table 4a): 0.4 µg/mL (≈ 0.669 µM)
- IC90 ([7]; Table 4b): 0.4 µg/mL (≈ 0.669 µM)
- Concentration at 90% Inhibition St ([8]; Table 4b, 48 hours): D (“D” provided a compound concentration of >50 ppm at 90% inhibition of fungal pathogens)
- IC90 ([8]; Table 4a, 48 hours): > 50 µg/mL
- IC90 ([9]; Table 4a): 0.4 µg/mL (≈ 0.669 µM)
- IC90 ([9]; Table 4b): 0.4 µg/mL (≈ 0.669 µM)
- IC90 ([10]; Table 4a): 2 µg/mL (≈ 3.35 µM)
- IC90 ([10]; Table 4b): 2 µg/mL (≈ 3.35 µM)
- IC90 ([11]; Table 4a, 48 hours): 0.08 µg/mL (≈ 0.134 µM)
- Concentration at 90% Inhibition Fm ([11]; Table 4b, 48 hours): A A
- IC50 [12]: 3 to 10 nM
- IC50 [13]: 0.6 to 3 nM

Compound: COc1ccc(F)cc1[C@H](Cn1c(=O)n(C(C)(C)C(=O)NC(C)C)c(=O)c2c(C)c(-n3cccn3)sc21)OC1CCC(=O)CC1 [Compound I-26, (R)-2-(1-(2-(5-fluoro-2-methoxyphenyl)-2-((4-oxocyclo-hexyl)oxy)ethyl)-5-methyl-2,4-dioxo-6-(1H-pyrazol-1-yl)-1,4-dihydro-thieno[2,3-d]pyrimidin-3(2H)-yl)-N-isopropyl-2-methylpropanamide]
- MIC ([1]; ATCC6258, 48 h): 0.25 to 1 µg/mL (≈ 0.391 to 1.56 µM)
- MIC ([2]; ATCC90028, 48 h): 1.1 to 2 µg/mL (≈ 1.72 to 3.13 µM)
- MIC ([3]; ATCC22019, 48 h): 1.1 to 2 µg/mL (≈ 1.72 to 3.13 µM)
- IC90 ([4]; Table 4a): 2 µg/mL (≈ 3.13 µM)
- IC90 ([4]; Table 4b): 2 µg/mL (≈ 3.13 µM)
- IC90 ([5]; 48 h, Table 4a): > 50 µg/mL
- IC90 ([5]; 48 h, Table 4b): > 50 µg/mL
- IC90 ([6]; read-out: Concentration at 90% Inhibition Fv, Table 4a, 48 hours): 2 µg/mL (≈ 3.13 µM)
- IC90 ([6]; read-out: Concentration at 90% Inhibition Fv, Table 4b, 48 hours): 2 µg/mL (≈ 3.13 µM)
- IC90 ([7]; Table 4a): > 50 µg/mL
- IC90 ([7]; Table 4b): 10 µg/mL (≈ 15.6 µM)
- IC90 ([8]; 48 h, Table 4a): > 50 µg/mL
- IC90 ([8]; 48 h, Table 4b): > 50 µg/mL
- IC90 ([9]; Table 4a): 0.4 µg/mL (≈ 0.625 µM)
- IC90 ([9]; Table 4b): 0.4 µg/mL (≈ 0.625 µM)
- IC90 ([10]; Table 4a): 2 µg/mL (≈ 3.13 µM)
- IC90 ([10]; Table 4b): 2 µg/mL (≈ 3.13 µM)
- IC90 [11]: 0.08 µg/mL (≈ 0.125 µM)
- Concentration at 90% Inhibition Fm ([11]; Table 4a, 48 hours): A A
- IC50 [12]: 3 to 10 nM
- IC50 [13]: 0.6 to 3 nM
